According to the supplement of paper PMC10883282:
± gives the standard deviation of the averaged measurements.

Tests used:
Assay in all cases: relative viability vs DMSO control (72 h) (fraction); higher = more viable cells
SW872 = test system: SW872
In short: (§1)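 Sarcoma cell lines were seeded in 384-well plates at densities set to reach 80–90% confluence. After 24 h, 2.5 µl of serially diluted compound was added (source plates 10 mM to 0.0002 mM), and plates were held 72 h at 37 °C, 5% CO2, with 0.1% DMSO vehicle and a 5 µM positive control. Relative viability came from ATPLite readings as percent growth, averaged over up to triplicate wells. Data were rescaled so full viability equals 1 and none equals 0.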

SW684 = test system: SW684
In short: as §1

SW982 = test system: SW982
In short: as §1

A204 = test system: A204
In short: as §1

KHOS-NP = test system: KHOS-NP
In short: as §1

RD-ES = test system: RD-ES
In short: as §1

SK-LMS-1 = test system: SK-LMS-1
In short: as §1

G401 = test system: G401
In short: as §1

VA-ES-BJ = test system: VA-ES-BJ
In short: as §1

SK-ES-1 = test system: SK-ES-1
In short: as §1

HS729 = test system: HS729
In short: as §1

HT1080 = test system: HT1080
In short: as §1

## CC(=O)c1c(C)c2cnc(Nc3ccc(N4CCNCC4)cn3)nc2n(C2CCCC2)c1=O [Palbociclib]
SW872; 0.00017 µM
  relative viability: 1.11 ± 0.02
SW872; 0.00051 µM
  relative viability: 1.1 ± 0.025
SW872; 0.00152 µM
  relative viability: 1.07 ± 0.041
SW872; 0.00457 µM
  relative viability: 1.09 ± 0.017
SW872; 0.01372 µM
  relative viability: 1.07 ± 0.033
SW872; 0.04115 µM
  relative viability: 1.03 ± 0.052
SW872; 0.1235 µM
  relative viability: 0.968 ± 0.047
SW872; 0.3704 µM
  relative viability: 0.884 ± 0.064
SW872; 1.111 µM
  relative viability: 0.83 ± 0.056
SW872; 3.333 µM
  relative viability: 0.78 ± 0.05
SW872; 10 µM
  relative viability: 0.726 ± 0.0098
SW684; 0.00017 µM
  relative viability: 1.19 ± 0.033
SW684; 0.00051 µM
  relative viability: 1.2 ± 0.031
SW684; 0.00152 µM
  relative viability: 1.24 ± 0.022
SW684; 0.00457 µM
  relative viability: 1.241 ± 0.01
SW684; 0.01372 µM
  relative viability: 1.28 ± 0.035
SW684; 0.04115 µM
  relative viability: 1.21 ± 0.046
SW684; 0.1235 µM
  relative viability: 1.18 ± 0.021
SW684; 0.3704 µM
  relative viability: 1.11 ± 0.027
SW684; 1.111 µM
  relative viability: 1.05 ± 0.038
SW684; 3.333 µM
  relative viability: 0.933 ± 0.045
SW684; 10 µM
  relative viability: 0.7226 ± 0.0051
SW982; 0.00017 µM
  relative viability: 1.03 ± 0.033
SW982; 0.00051 µM
  relative viability: 1.08 ± 0.032
SW982; 0.00152 µM
  relative viability: 1.06 ± 0.05
SW982; 0.00457 µM
  relative viability: 1.05 ± 0.024
SW982; 0.01372 µM
  relative viability: 1.01 ± 0.041
SW982; 0.04115 µM
  relative viability: 0.936 ± 0.022
SW982; 0.1235 µM
  relative viability: 0.845 ± 0.021
SW982; 0.3704 µM
  relative viability: 0.737 ± 0.037
SW982; 1.111 µM
  relative viability: 0.6424 ± 0.0046
SW982; 3.333 µM
  relative viability: 0.487 ± 0.049
SW982; 10 µM
  relative viability: 0.222 ± 0.014
A204; 0.00017 µM
  relative viability: 1.05 ± 0.021
A204; 0.00051 µM
  relative viability: 1.07 ± 0.047
A204; 0.00152 µM
  relative viability: 1.07 ± 0.081
A204; 0.00457 µM
  relative viability: 1.08 ± 0.05
A204; 0.01372 µM
  relative viability: 1.03 ± 0.054
A204; 0.04115 µM
  relative viability: 0.987 ± 0.072
A204; 0.1235 µM
  relative viability: 0.808 ± 0.041
A204; 0.3704 µM
  relative viability: 0.777 ± 0.062
A204; 1.111 µM
  relative viability: 0.649 ± 0.059
A204; 3.333 µM
  relative viability: 0.556 ± 0.011
A204; 10 µM
  relative viability: 0.39 ± 0.035
KHOS-NP; 0.00017 µM
  relative viability: 1.12 ± 0.012
KHOS-NP; 0.00051 µM
  relative viability: 1.11 ± 0.02
KHOS-NP; 0.00152 µM
  relative viability: 1.124 ± 0.0041
KHOS-NP; 0.00457 µM
  relative viability: 1.1 ± 0.0084
KHOS-NP; 0.01372 µM
  relative viability: 1.13 ± 0.023
KHOS-NP; 0.04115 µM
  relative viability: 1.12 ± 0.012
KHOS-NP; 0.1235 µM
  relative viability: 1.11 ± 0.019
KHOS-NP; 0.3704 µM
  relative viability: 1.1 ± 0.024
KHOS-NP; 1.111 µM
  relative viability: 1.07 ± 0.05
KHOS-NP; 3.333 µM
  relative viability: 0.902 ± 0.077
KHOS-NP; 10 µM
  relative viability: 0.742 ± 0.056
RD-ES; 0.00017 µM
  relative viability: 0.959 ± 0.025
RD-ES; 0.00051 µM
  relative viability: 0.9884 ± 0.0038
RD-ES; 0.00152 µM
  relative viability: 0.98 ± 0.04
RD-ES; 0.00457 µM
  relative viability: 0.931 ± 0.053
RD-ES; 0.01372 µM
  relative viability: 0.917 ± 0.042
RD-ES; 0.04115 µM
  relative viability: 0.835 ± 0.021
RD-ES; 0.1235 µM
  relative viability: 0.735 ± 0.034
RD-ES; 0.3704 µM
  relative viability: 0.652 ± 0.013
RD-ES; 1.111 µM
  relative viability: 0.603 ± 0.013
RD-ES; 3.333 µM
  relative viability: 0.563 ± 0.016
RD-ES; 10 µM
  relative viability: 0.18 ± 0.016
SK-LMS-1; 0.00017 µM
  relative viability: 1.05 ± 0.055
SK-LMS-1; 0.00051 µM
  relative viability: 1.04 ± 0.016
SK-LMS-1; 0.00152 µM
  relative viability: 1.08 ± 0.031
SK-LMS-1; 0.00457 µM
  relative viability: 1.05 ± 0.042
SK-LMS-1; 0.01372 µM
  relative viability: 1.06 ± 0.09
SK-LMS-1; 0.04115 µM
  relative viability: 0.97 ± 0.062
SK-LMS-1; 0.1235 µM
  relative viability: 0.998 ± 0.026
SK-LMS-1; 0.3704 µM
  relative viability: 0.961 ± 0.058
SK-LMS-1; 1.111 µM
  relative viability: 1 ± 0.03
SK-LMS-1; 3.333 µM
  relative viability: 1.06 ± 0.047
SK-LMS-1; 10 µM
  relative viability: 0.798 ± 0.15
G401; 0.00017 µM
  relative viability: 1.04 ± 0.045
G401; 0.00051 µM
  relative viability: 1.03 ± 0.037
G401; 0.00152 µM
  relative viability: 1.016 ± 0.01
G401; 0.00457 µM
  relative viability: 0.989 ± 0.035
G401; 0.01372 µM
  relative viability: 0.962 ± 0.018
G401; 0.04115 µM
  relative viability: 0.938 ± 0.03
G401; 0.1235 µM
  relative viability: 0.882 ± 0.05
G401; 0.3704 µM
  relative viability: 0.856 ± 0.061
G401; 1.111 µM
  relative viability: 0.833 ± 0.052
G401; 3.333 µM
  relative viability: 0.742 ± 0.051
G401; 10 µM
  relative viability: 0.293 ± 0.082
VA-ES-BJ; 0.00017 µM
  relative viability: 1.1 ± 0.042
VA-ES-BJ; 0.00051 µM
  relative viability: 1.1 ± 0.034
VA-ES-BJ; 0.00152 µM
  relative viability: 1.081 ± 0.0027
VA-ES-BJ; 0.00457 µM
  relative viability: 1.08 ± 0.015
VA-ES-BJ; 0.01372 µM
  relative viability: 0.99 ± 0.029
VA-ES-BJ; 0.04115 µM
  relative viability: 0.9367 ± 0.0042
VA-ES-BJ; 0.1235 µM
  relative viability: 0.807 ± 0.017
VA-ES-BJ; 0.3704 µM
  relative viability: 0.666 ± 0.037
VA-ES-BJ; 1.111 µM
  relative viability: 0.584 ± 0.04
VA-ES-BJ; 3.333 µM
  relative viability: 0.547 ± 0.021
VA-ES-BJ; 10 µM
  relative viability: 0.499 ± 0.03
SK-ES-1; 0.00017 µM
  relative viability: 1 ± 0.094
SK-ES-1; 0.00051 µM
  relative viability: 1.07 ± 0.057
SK-ES-1; 0.00152 µM
  relative viability: 1.03 ± 0.041
SK-ES-1; 0.00457 µM
  relative viability: 1.02 ± 0.035
SK-ES-1; 0.01372 µM
  relative viability: 0.9868 ± 0.0077
SK-ES-1; 0.04115 µM
  relative viability: 0.865 ± 0.049
SK-ES-1; 0.1235 µM
  relative viability: 0.674 ± 0.02
SK-ES-1; 0.3704 µM
  relative viability: 0.512 ± 0.0068
SK-ES-1; 1.111 µM
  relative viability: 0.467 ± 0.013
SK-ES-1; 3.333 µM
  relative viability: 0.407 ± 0.036
SK-ES-1; 10 µM
  relative viability: 0.241 ± 0.012
HS729; 0.00017 µM
  relative viability: 1.05 ± 0.034
HS729; 0.00051 µM
  relative viability: 1.02 ± 0.08
HS729; 0.00152 µM
  relative viability: 1.06 ± 0.029
HS729; 0.00457 µM
  relative viability: 1.01 ± 0.089
HS729; 0.01372 µM
  relative viability: 1.05 ± 0.053
HS729; 0.04115 µM
  relative viability: 0.965 ± 0.091
HS729; 0.1235 µM
  relative viability: 0.987 ± 0.055
HS729; 0.3704 µM
  relative viability: 0.984 ± 0.04
HS729; 1.111 µM
  relative viability: 0.844 ± 0.017
HS729; 3.333 µM
  relative viability: 0.849 ± 0.086
HS729; 10 µM
  relative viability: 0.933 ± 0.045
HT1080; 0.00017 µM
  relative viability: 1.09 ± 0.024
HT1080; 0.00051 µM
  relative viability: 1.1 ± 0.048
HT1080; 0.00152 µM
  relative viability: 1.11 ± 0.026
HT1080; 0.00457 µM
  relative viability: 1.08 ± 0.058
HT1080; 0.01372 µM
  relative viability: 1.13 ± 0.046
HT1080; 0.04115 µM
  relative viability: 1.12 ± 0.035
HT1080; 0.1235 µM
  relative viability: 1.16 ± 0.022
HT1080; 0.3704 µM
  relative viability: 1.16 ± 0.058
HT1080; 1.111 µM
  relative viability: 1.06 ± 0.029
HT1080; 3.333 µM
  relative viability: 0.973 ± 0.011
HT1080; 10 µM
  relative viability: 0.44 ± 0.022
